Measured values taken from ChEMBL document CHEMBL4052736, “Synthesis, antioxidant, antifungal, molecular docking and ADMET studies of some thiazolyl hydrazones” (Bioorg Med Chem Lett, 2017).
In brackets after ≈: the same amount, converted by molar mass.

Legend:
Type in all cases: functional
[1] = Antioxidant activity assessed as H2O2 free radical scavenging activity at 40 ug/ml after 10 to 15 mins by spectrophotometric analysis
[2] = Antioxidant activity assessed as H2O2 free radical scavenging activity at 20 ug/ml after 10 to 15 mins by spectrophotometric analysis
[3] = tested on: Aspergillus flavus; assay: Antifungal activity against Aspergillus flavus assessed as zone of inhibition at 50 ug/ml measured after 24 hrs by well diffusion method; settings: read-out: IZ
[4] = Antioxidant activity assessed as DPPH free radical scavenging activity measured after 15 mins by spectrophotometric method
[5] = Antioxidant activity assessed as H2O2 free radical scavenging activity by spectrophotometric analysis
[6] = Antioxidant activity assessed as H2O2 free radical scavenging activity at 60 ug/ml after 10 to 15 mins by spectrophotometric analysis
[7] = tested on: Aspergillus flavus; assay: Antifungal activity against Aspergillus flavus assessed as zone of inhibition at 100 ug/ml measured after 24 hrs by well diffusion method; settings: read-out: IZ
[8] = Antioxidant activity assessed as H2O2 free radical scavenging activity at 100 ug/ml after 10 to 15 mins by spectrophotometric analysis
[9] = tested on: Aspergillus niger; assay: Antifungal activity against Aspergillus niger assessed as zone of inhibition at 25 ug/ml measured after 24 hrs by well diffusion method; settings: read-out: IZ
[10] = Antioxidant activity assessed as DPPH free radical scavenging activity at 40 ug/ml after 15 mins by spectrophotometric method
[11] = tested on: Candida albicans; assay: Antifungal activity against Candida albicans assessed as zone of inhibition at 25 ug/ml measured after 24 hrs by well diffusion method; settings: read-out: IZ
[12] = Antioxidant activity assessed as H2O2 free radical scavenging activity at 80 ug/ml after 10 to 15 mins by spectrophotometric analysis
[13] = Antioxidant activity assessed as DPPH free radical scavenging activity at 80 ug/ml after 15 mins by spectrophotometric method
[14] = Antioxidant activity assessed as DPPH free radical scavenging activity at 60 ug/ml after 15 mins by spectrophotometric method
[15] = tested on: Candida albicans; assay: Antifungal activity against Candida albicans assessed as zone of inhibition at 100 ug/ml measured after 24 hrs by well diffusion method; settings: read-out: IZ
[16] = tested on: Candida albicans; assay: Antifungal activity against Candida albicans after 24 hrs by well diffusion method
[17] = tested on: Aspergillus niger; assay: Antifungal activity against Aspergillus niger assessed as zone of inhibition at 50 ug/ml measured after 24 hrs by well diffusion method; settings: read-out: IZ
[18] = tested on: Aspergillus niger; assay: Antifungal activity against Aspergillus niger assessed as zone of inhibition at 100 ug/ml measured after 24 hrs by well diffusion method; settings: read-out: IZ
[19] = Antioxidant activity assessed as DPPH free radical scavenging activity at 100 ug/ml after 15 mins by spectrophotometric method
[20] = tested on: Aspergillus flavus; assay: Antifungal activity against Aspergillus flavus assessed as zone of inhibition at 25 ug/ml measured after 24 hrs by well diffusion method; settings: read-out: IZ
[21] = tested on: Candida albicans; assay: Antifungal activity against Candida albicans assessed as zone of inhibition at 50 ug/ml measured after 24 hrs by well diffusion method; settings: read-out: IZ
[22] = Antioxidant activity assessed as DPPH free radical scavenging activity at 20 ug/ml after 15 mins by spectrophotometric method
[23] = tested on: Aspergillus niger; assay: Antifungal activity against Aspergillus niger after 24 hrs by well diffusion method
[24] = tested on: Aspergillus flavus; assay: Antifungal activity against Aspergillus flavus after 24 hrs by well diffusion method

SMILES	inhibition [1]	inhibition [2]	zone of inhibition at 50 µg/mL [3]	IC50 [4]	IC50 [5]	inhibition [6]	zone of inhibition at 100 µg/mL [7]	inhibition [8]	zone of inhibition at 25 µg/mL [9]	inhibition [10]	zone of inhibition at 25 µg/mL [11]	inhibition [12]	inhibition [13]	inhibition [14]	zone of inhibition at 100 µg/mL [15]	MIC [16]	zone of inhibition at 50 µg/mL [17]	zone of inhibition at 100 µg/mL [18]	inhibition [19]	inhibition [22]	also measured
Cc1ccc(-c2csc(N/N=C/c3cccs3)n2)cc1	82.8%	79.6%	6 mm	29.837 µg/mL (≈ 99.6 µM)	35.933 µg/mL (≈ 120 µM)	84.4%	6 mm	91%	6 mm	97%	13 mm	88.4%	97.8%	97.6%	15 mm	6.25 µg/mL (≈ 20.9 µM)	6 mm	6 mm	98.1%	90.9%	zone of inhibition at 25 µg/mL [20]: 6 mm; zone of inhibition at 50 µg/mL [21]: 14 mm
C(=N\Nc1nc(-c2ccccc2)cs1)/c1cccs1	90%	87.5%	12 mm	26.008 µg/mL (≈ 91.1 µM)	31.03 µg/mL (≈ 109 µM)	91%	15 mm	94%	6 mm	95.8%	6 mm	92.4%	97.1%	97.6%	12 mm	12.5 µg/mL (≈ 43.8 µM)	8 mm	10 mm	96.8%	95.5%	MIC [23]: 25 µg/mL (≈ 87.6 µM); zone of inhibition at 25 µg/mL [20]: 8 mm; zone of inhibition at 50 µg/mL [21]: 10 mm
COC(=O)c1cc(-c2csc(N/N=C/c3ccc(Cl)cc3Cl)n2)ccc1OCc1ccccc1	63.5%	58.9%	6 mm	88.844 µg/mL (≈ 173 µM)	57.873 µg/mL (≈ 113 µM)	66.3%	14 mm	75%	6 mm	37.2%	12 mm	71.8%	45.5%	41.9%	13 mm	6.25 µg/mL (≈ 12.2 µM)	6 mm	6 mm	56.1%	19.2%	zone of inhibition at 25 µg/mL [20]: 6 mm; zone of inhibition at 50 µg/mL [21]: 10 mm
Clc1ccc(-c2csc(N/N=C/c3cccs3)n2)cc1	83.2%	82.8%	17 mm	26.335 µg/mL (≈ 82.3 µM)	39.58 µg/mL (≈ 124 µM)	85.2%	20 mm	87.1%	6 mm	96%	11 mm	86%	96.6%	96.1%	18 mm	6.25 µg/mL (≈ 19.5 µM)	6 mm	8 mm	97%	94.4%	MIC [24]: 12.5 µg/mL (≈ 39.1 µM); zone of inhibition at 25 µg/mL [20]: 8 mm; zone of inhibition at 50 µg/mL [21]: 14 mm
O=C(O)Cc1ccccc1Nc1c(Cl)cccc1Cl	–	–	–	–	–	–	–	–	–	–	–	–	–	–	–	–	–	–	–	97.1%	–
O=C1O[C@H]([C@@H](O)CO)C(O)=C1O [ASCORBIC ACID]	94.6%	93.4%	–	26.771 µg/mL (≈ 152 µM)	26.771 µg/mL (≈ 152 µM)	95.5%	–	97%	–	94.6%	–	96%	96%	95.5%	–	–	–	–	97%	93.4%	–
Fc1ccc(-c2csc(N/N=C/c3ccc(Cl)cc3Cl)n2)cc1	90%	88.4%	10 mm	27.139 µg/mL (≈ 74.1 µM)	35.539 µg/mL (≈ 97 µM)	92.4%	12 mm	95.6%	6 mm	93.3%	10 mm	94%	95.5%	94.6%	13 mm	6.25 µg/mL (≈ 17.1 µM)	6 mm	6 mm	96%	90.7%	MIC [24]: 12.5 µg/mL (≈ 34.1 µM); zone of inhibition at 25 µg/mL [20]: 8 mm; zone of inhibition at 50 µg/mL [21]: 11 mm
Fc1ccc(-c2csc(N/N=C/c3cccs3)n2)cc1	87.5%	84.2%	6 mm	44.12 µg/mL (≈ 145 µM)	35.206 µg/mL (≈ 116 µM)	90.3%	6 mm	92.4%	6 mm	93.3%	12 mm	91.9%	66.3%	94.6%	15 mm	6.25 µg/mL (≈ 20.6 µM)	10 mm	13 mm	97%	92.4%	MIC [23]: 25 µg/mL (≈ 82.4 µM); zone of inhibition at 25 µg/mL [20]: 6 mm; zone of inhibition at 50 µg/mL [21]: 14 mm
Cc1ccc(-c2csc(N/N=C/c3ccc(Cl)cc3Cl)n2)cc1	80.4%	76.2%	10 mm	30.791 µg/mL (≈ 85 µM)	40.004 µg/mL (≈ 110 µM)	83.2%	16 mm	85.3%	6 mm	86.2%	6 mm	84.2%	90.7%	93.3%	8 mm	25 µg/mL (≈ 69 µM)	6 mm	6 mm	95.1%	86%	MIC [24]: 25 µg/mL (≈ 69 µM); zone of inhibition at 25 µg/mL [20]: 6 mm; zone of inhibition at 50 µg/mL [21]: 6 mm
COC(=O)c1cc(-c2csc(N/N=C/c3cccs3)n2)ccc1OCc1ccccc1	82.8%	79.6%	6 mm	28.131 µg/mL (≈ 62.6 µM)	29.212 µg/mL (≈ 65 µM)	84.4%	6 mm	92.4%	6 mm	94.9%	6 mm	87.6%	96%	95.5%	10 mm	25 µg/mL (≈ 55.6 µM)	6 mm	6 mm	96.3%	94.3%	zone of inhibition at 25 µg/mL [20]: 6 mm; zone of inhibition at 50 µg/mL [21]: 8 mm
COc1ccc(-c2csc(N/N=C/c3ccc(Cl)cc3Cl)n2)cc1	79.7%	78.1%	6 mm	34.966 µg/mL (≈ 92.4 µM)	40.405 µg/mL (≈ 107 µM)	82.8%	6 mm	87.5%	6 mm	69.5%	6 mm	84.2%	90.6%	86.9%	7 mm	25 µg/mL (≈ 66.1 µM)	6 mm	6 mm	93.3%	65.5%	zone of inhibition at 25 µg/mL [20]: 6 mm; zone of inhibition at 50 µg/mL [21]: 6 mm
